Measurements: patent US9415070B2, “Methods and compositions for localized delivery of agents to virally infected cells and tissues” (Massachusetts Institute of Technology, priority 2012, dated 2016)

B1: perforin: pore-forming protein, 67-kilodalton multidomain protein (protein, UniProt P14222 22-555, looked up)
Perforin-1: PCHTAARSECKRSHKFVPGAWLAGEGVDVTSLRRSGSFPVDTQRFLRPDGTCTLCENALQEGTLQRLPLALTNWRAQGSGCQRHVTRAKVSSTEAVARDAARSIRNDWKVGLDVTPKPTSNVHVSVAGSHSQAANFAAQKTHQDQYSFSTDTVECRFYSFHVVHTPPLHPDFKRALGDLPHHFNASTQPAYLRLISNYGTHFIRAVELGGRISALTALRTCELALEGLTDNEVEDCLTVEAQVNIGIHGSISAEAKACEEKKKKHKMTASFHQTYRERHSEVVGGHHTSINDLLFGIQAGPEQYSAWVNSLPGSPGLVDYTLEPLHVLLDSQDPRREALRRALSQYLTDRARWRDCSRPCPPGRQKSPRDPCQCVCHGSAVTTQDCCPRQRGLAQLEVTFIQAWGLWGDWFTATDAYVKLFFGGQELRTSTVWDNNNPIWSVRLDFGDVLLATGGPLRLQVWDQDSGRDDDLLGTCDQAPKSGSHEVRCNLNHGHLKFRYHARCLPHLGGGTCLDYVPQMLLGEPPGNRSGAVW

Experiments:
infected target cells = test: in vitro eradication assay, HIV-specific T cells co-cultured with infected target cells; format: cell-based; conditions: in the presence of the latency reversing drug; FIG. 4
Excerpt: The in vitro cell eradication assay presented in this Example was directed to determining if T pharmacytes can induce expression of HIV expression in latently infected cells and kill those cells. HIV-specific T cells and Cytomegalovirus (CMV)-specific T cells were co-cultured with infected target cells (and mock-infected target cells) without the addition of any exogenous cytokines.

[1] = tested on: B lymphoblastoid cell line (BLCL); test: lysis of BLCL by recombinant perforin (FSC/SSC flow cytometry); format: cell-based; conditions: FIG. 12A
Experimental: The next series of experiments were designed to test the effects of different concentrations of recombinant perforin on lysis of a B lymphoblastoid cell line (BLCL). […] The cell populations with FSC/SSC characteristics of viable BLCL have been gated. 1 nM perforin appeared to be sufficient for clear cell lysis. To investigate whether perforin release from T cells is sufficient to trigger release of payload from nanoparticles conjugated to T cells, ICMV nanoparticles encapsulating Alexa-647-labeled OVA were treated with 1 nM perforin for 16 hours, or maintained as a no-treatment control. As a positive control for complete lysis, NPs were treated with 2% Triton X-100. Fluorescence was quantified at 647 nm absorbance and 695 nm emission.

Molecule | response of HIV-specific T cells to infected target cells (infected target cells) | perforin concentration sufficient for clear cell lysis [1]
IL-15: cytokine used as latency reversing drug | specifically respond to these infected target cells only in the presence of latency reversing drugs | 
B1 |  | 1 nM
